Source: patent US4177350A, “Imidazole ethyl oxyalkoxy derivatives and thio analogues thereof” (Siegfried Aktiengesellschaft, priority 1977, dated 1979)

Legend:
[1] = system: Trichophyton mentagrophytes; assay: minimum inhibitory concentration, gradient plate method, Trichophyton mentagrophytes; assay type: cell-based; settings: 72 h, gradient 0-100 μg/ml, 10% aqueous dimethyl formamide, evaluated three days after inoculation, read-out: Minimum Inhibitory Concentration, Fungi, Tri
From the text: (§1) Test evaluation was made three days after inoculation.

Aspergillus niger = assay: minimum inhibitory concentration, gradient plate method, Aspergillus niger; assay type: cell-based; settings: 72 h, gradient 0-100 μg/ml, 10% aqueous dimethyl formamide, evaluated three days after inoculation, read-out: Minimum Inhibitory Concentration, Fungi, Asp
From the text: as §1

in vivo = settings: mouse, po
From the text: The results of these tests are summarized in the following Table I together with the oral toxicity values (LD50 per os; mice, values in mg per kg of body weight) determined in the conventional manner.

[2] = system: Staphylococcus aureus haemolyticus; assay: minimum inhibitory concentration, gradient plate method, Staphylococcus aureus haemolyticus; assay type: cell-based; set-up: key to partial resistancy, Bacteria, St: partial resistancy observed; settings: for MIC: 72 h, gradient 0-100 μg/ml, 10% aqueous dimethyl formamide, evaluated three days after inoculation, read-out: Minimum Inhibitory Concentration, Bacteria, St
From the text: as §1

Streptococcus faecalis = assay: minimum inhibitory concentration, gradient plate method, Streptococcus faecalis; assay type: cell-based; settings: Enterococcus faecalis, 72 h, gradient 0-100 μg/ml, 10% aqueous dimethyl formamide, evaluated three days after inoculation, read-out: Minimum Inhibitory Concentration, Bacteria, Str
From the text: as §1

SMILES	MIC [1] [µg/mL]	MIC (Aspergillus niger) [µg/mL]	LD50 (in vivo) [mg/kg]	MIC [2] [µg/mL]	MIC (Streptococcus faecalis) [µg/mL]	partial resistancy, Bacteria, St [2]
COCOC(Cn1ccnc1)c1ccc(Cl)cc1Cl (stereo not drawn) [Example 1, 1-β-(methoxy-methoxy-2,4-dichlorophenethyl)-imidazole nitrate]	< 10	< 10	540	–	–	–
Clc1ccc(C(Cn2ccnc2)OCOc2ccccc2)c(Cl)c1 (stereo not drawn) [Example 2, 1-β-(phenoxymethoxy-2,4-dichlorophenethyl)-imidazole nitrate]	< 10	< 10	> 3000	10	25	–
Clc1ccc(C(Cn2ccnc2)OCOc2ccccc2Cl)c(Cl)c1 (stereo not drawn) [Example 3, 1-β-(2-chlorophenoxymethoxy-2,4-dichlorophenethyl)-imidazole nitrate]	< 10	< 10	> 3000	< 10	15	–
Clc1ccc(OCOC(Cn2ccnc2)c2ccc(Cl)cc2Cl)cc1 (stereo not drawn) [Example 4, 1-β-(4-chlorophenoxymethoxy-2,4-dichlorophenethyl)-imidazole nitrate]	< 10	< 10	~2750	< 10	< 10	–
Clc1ccc(OCOC(Cn2ccnc2)c2ccc(Cl)cc2Cl)c(Cl)c1 (stereo not drawn) [Example 5, 1-β-(2,4-dichlorophenoxymethoxy-2,4-dichlorophenethyl)-imidazole nitrate]	< 10	< 10	> 3000	< 10	< 10	–
Cc1ccc(OCOC(Cn2ccnc2)c2ccc(Cl)cc2Cl)cc1 (stereo not drawn) [Example 6, 1-β-(4-methylphenoxymethoxy-2,4-dichlorophenethyl)-imidazole nitrate]	< 10	< 10	> 3000	< 10	15	–
COc1ccc(OCOC(Cn2ccnc2)c2ccc(Cl)cc2Cl)cc1 (stereo not drawn) [Example 7, 1-β-(4-methoxyphenoxymethoxy-2,4-dichlorophenethyl)-imidazole nitrate]	< 10	< 10	2600	10	30	–
CSc1ccc(OCOC(Cn2ccnc2)c2ccc(Cl)cc2Cl)cc1 (stereo not drawn) [Example 8, 1-β-(4-methylthiophenoxymethoxy-2,4-dichlorophenethyl)-imidazole nitrate]	< 10	< 10	~2100	10	–	–
Clc1ccc(C(Cn2ccnc2)OCOc2ccc(-c3ccccc3)cc2)c(Cl)c1 (stereo not drawn) [Example 9, 1-β-(phenylphenoxymethoxy-2,4-dichlorophenethyl)-imidazole nitrate]	–	–	~3500	–	–	–
OCCSC(Cn1ccnc1)c1ccc(Cl)cc1Cl (stereo not drawn) [Example 18, 1-β-(2,4-dichlorophenethyl-β'-hydroxyethylthio)-imidazole nitrate]	30	–	1300	50	40	–
Clc1ccc(SCCSC(Cn2ccnc2)c2ccc(Cl)cc2Cl)cc1 (stereo not drawn) [Example 21, 1-β-(4-chlorophenylthioethylthio-2,4-dichlorophenethyl)-imidazole]	< 10	< 10	> 3000	< 10	–	–
Clc1ccc(CSCOC(Cn2ccnc2)c2ccc(Cl)cc2Cl)cc1 (stereo not drawn) [Example 23, 1-β-(p-chlorobenzylthiomethoxy-2,4-dichlorophenethyl)-imidazole nitrate]	< 10	< 10	> 2000	< 10	–	–
COc1ccccc1OCOC(Cn1ccnc1)c1ccc(Cl)cc1Cl (stereo not drawn) [Example 24, 1-β-(2-methoxyphenoxymethyloxy-2,4-dichlorophenethyl)-imidazole nitrate]	< 10	< 10	~1350	–	–	r
Clc1ccc(SCCSC(Cn2ccnc2)c2ccc(Cl)cc2Cl)nc1 (stereo not drawn) [Example 29, 1-{β-[(5'-chloropyridyl-2'-thio-2-ethylthio)-2,4-dichlorophenethyl]}-imidazole]	< 10	< 10	> 2000	< 10	–	–
